The results in this text go back to article PMC9167803 (Acta Pharmaceutica Sinica. B, 2022).

The target of this assay is SARS-CoV-2 RBD (Severe acute respiratory syndrome coronavirus 2, UniProt P0DTC2). The assay can be described thus: biochemical. It counts as binding.

Consider `O=c1c(O)c(-c2ccc(O)c(O)c2)oc2cc(O)cc(O)c12` [compound 4, quercetin], for which the Kd (commonly the equilibrium constant for the complex coming apart) came out at 75.6 µM.
